According to patent publication US20220017520A1, “MACROCYCLIC COMPOUND AS CDK INHIBITOR, PREPARATION METHOD THEREFOR, AND USE THEREOF IN MEDICINE” (Keythera (Suzhou) Pharmaceuticals Co. Ltd., priority 2018, published 2022):

Assays:
[1] = system: MCF-7 cells; assay: In vitro cell proliferation assay by BrdU method; format: cell-based; settings: 72 hours, 10% FBS
Protocol: In Vitro Cell Inhibitory Activity of the Compound of the Present Invention
Experimental method: Cell proliferation assay was carried out by BrdU method (BrdU cell proliferation assay kit, Cell Signaling Technology Co.)
Preparation of gradient dilution solution of test compound: the 10 mM stock solution of test compound was subjected to 4-fold serial gradient dilution with DMSO to obtain solutions with a concentration of 2.5 mM, […], respectively. 2 μL of DMSO-diluted compound was added to 198 μL of culture medium containing 10% FBS to obtain 10-fold test compound, wherein the maximum concentration of the test compound was 10 μM, the DMSO concentration was 1%, with a total of 7 concentration gradients.
MCF-7 culture medium: DMEM+10% FBS+0.01 mg/mL insulin
(1) Cells grown to 80% (in exponential growth phase) were digested with pancreatin, and were collected by centrifugation. MDA-MB-435S cells and U87MG cells were re-suspended in a FBS-free culture medium, counted and inoculated to a 96-well plate; MDA-MB-435S cells were inoculated at 3000 cells/well/81 μL, and U87MG cells were inoculated at 4000 cells/well/81 μL. MCF-7 cells were resuspended in a culture medium containing 1% FBS, counted and inoculated to a 96-well plate at 4000 cell/well/82 μL. The cells were incubated in a cell incubator at 37° C.
(2) After 24 hours of incubation, FBS (9 μL) was added to each well of the MDA-MB-435S cells and U87MG cells, and 8 μL of FBS was added to each well of the MCF-7 cells, so as to obtain a final FBS concentration of 10%.
(3) A different concentration of 10-fold test compound (10 μL) was added to each well to obtain a final concentration of test compound of 10 μM, 2.5 μM, 625 nM, 156 nM, 39 nM, 9.8 nM or 2.5 nM, respectively, with 3 repeated wells/group, and the cells were incubated at 37° C. for 72 hours.
(4) 10-fold BrdU solution (10 μL) was added to each well, and the cells were incubated in the incubator for 4 hours, followed by discarding the culture medium.
(5) Fixing/denaturation solution (10 μL) was added to each well, and the cells were incubated at room temperature for 30 minutes, followed by discarding the solution.
(6) 1-fold detection antibody solution (100 μL) was added to each well, the cells were incubated at room temperature for 1 hour, followed by discarding the solution, and the cells were washed with 1-fold washing solution (200 μL/well) three times.
(7) 1-fold HRP-labelled secondary antibody solution (100 μL) was added to each well, the cells were incubated at room temperature for 30 minutes, followed by discarding the solution, and the cells were washed with 1-fold washing solution (200 μL/well) three times.
(8) TMB substrate solution (100 μL) was added to each well, and the cells were incubated at room temperature for 30 minutes.
(9) Stop solution (100 μL) was added to each well, and the OD value at 450 nm was measured by a microplate reader.
1) Cell survival rate (%)=(ODtest compound−ODblank control)/(ODnormal cell control−ODblank control)×100%,
2) The data was processed by GraphPad Prism 5 software to obtain the curve and IC50 values.

[2] = system: metastatic breast cancer; settings: drug alone, patients with hormone receptor-positive metastatic breast cancer, Phase I; cited from earlier work

IC50 [1]: 120 nM
Substance: Abemaciclib [LY2834219, reference compound]
clinical benefit rate [2]: 61%
